US5912258A, “Thiadiazoleamide derivative and anti-ulcer drug” (Shiseido Co., Ltd., priority 1998, dated 1999)

Key:
[1] = test system: isolated gastric fundic gland; assay: CAP: Acid Secretion Inhibition Test in vitro ([^14 C]-aminopyrine uptake); type: cell-based, male Japanese White rabbit; conditions: Oryctolagus cuniculus, rabbit isolated gastric fundic gland, 10^-5 M, histamine 10^-5 M; read-out: CAP: Acid secretion inhibitory rate
Method: CAP: Acid Secretion Inhibition Test in vitro (i) Meaning The acid secretion inhibitory activity in a cell level is studied. It can also be used for studying the mechanism of the effect. (ii) Method (ii)-(a) Preparation of isolated gastric gland suspension First, an isolated gastric fundic gland sample was prepared. Namely, a male Japanese White rabbit (2.5 to 3 kg) was anesthetized to death with Nembutal™ and then the abdomen was incised. Immediately thereafter, the stomach was removed and, after its pyloric and cardiac antrum were severed, incised along its greater curvature into two sheets. The gastric contents adhering to the mucosal surface was washed out with ice-cooled PBS (-) and then carefully washed therein. The gastric wall was spread on a cork board with its mucosal surface facing up and the feed and mucus thereon were completely removed with sterile gauze. The mucosa was separated therefrom by a spatula and then collected in ice-cooled PBS (-). After being washed twice with PBS (-), the mucosa was minced into 2-3 mm^3 pieces by scissors. These pieces were further washed twice with a nutrient solution. The nutrient solution comprises 132.4 mM of NaCl, 5.4 mM of KCl, 5 mM of Na2 HPO4 ·12H2 O, 1 mM of NaH2 PO4 ·2H2 O, 1.2 mM of MgSO4, 1 mM of CaCl2, 25 mM of HEPES, 2 mg/ml of glucose, and 1 mg/ml of BSA. Into 70 ml of the nutrient solution containing 1 mg/ml of collagenase, minced mucosal pieces were dispersed and intensely stirred in a conical flask with a stirrer at 37° C. for 40 to 60 minutes. […] The nutrient solution was added to the reaction solution so as to attain the total amount of about 200 ml. After being filtered through a mesh, the suspension was divisionally introduced into 50 ml centrifuge tubes and left for 15 minutes such that gastric fundic gland was deposited. The supernatant was repeatedly removed by an aspirator, dispersed in the nutrient solution, and then left such that the gastric fundic gland was washed three times. At this time, without using a pipette, the suspension was alternately introduced into two centrifuge tubes so as to effect dispersion. The number of cells was counted under microscope and adjusted to 1.6×10^6 cells/ml. (ii)-(b) [^14 C]-aminopyrine uptake test Then [^14 C]-aminopyrine uptake test was performed. After an Eppendorf tube was weighed, 10 μl (final concentration: 10^-5 M) of histamine dissolved in the above-mentioned nutrient solution, 10 μl (final concentration: 10 ^-5 M) of the test compound dissolved in DMSO, and 10 μl (final concentration: 0.05 μCi/ml) of [^14 C]-aminopyrine diluted with the nutrient solution were introduced therein and then 970 μl of the isolated gastric fundic gland suspension prepared above were added thereto. Subsequently, this mixture was shaken at 37° C. for 40 minutes at 125 cycles/minute. After being centrifuged for 30 minutes 200 μl of its supernatant was collected into a mini-vial, while the rest was removed by an aspirator. The gland pellet was completely dried as the tube with its lid being opened was kept for one night in a drying oven at 80° C. and then the weight was determined at room temperature. Then 100 μl of 1N KOH was added thereto an the tube with its lid being closed was treated at 60° C. for 1 to 2 hours so as to dissolve the pellet. Then, the contents thereof were transferred to a mini-vial. Into the mini-vial containing the supernatant or gland pellet, 4 ml of Atomlite™ was added and then the radioactivity was measured by a liquid scintillation counter. Here, after the radioactivity of the gland pellet was corrected by using a sample in which 20 mM of NaSCN was added so as to cancel the hydrogen ion concentration gradient, the integration ratio of aminopyrine specifically trapped by the gland pellet was calculated. This experiment was performed in duplicate. (ii)-(c) Calculation of the accumulation rate of aminopyrine Here, its principle will be briefly explained. […]

[2] = MTT: Cell Damaging and Protecting Effect Test; type: cell-based, male Japanese White rabbit; conditions: rabbit, gastric mucosa cells, 10^-4 M, smaller value is better, read-out: MTT: cell damaging rate
Description: MTT: Cell Damaging and Protecting Effect Test
It is confirmed that there is no toxicity in cell level. Those having toxicity in cell level are inappropriate as an anti-ulcer drug.
A male Japanese White rabbit (2.5 to 3 kg) was anesthetized to death by Nembutal™ and, immediately thereafter, its stomach was removed. The greater curvature of the stomach was incised so as to remove the stomach contents therefrom. After the mucosal surface was washed with HBSS (Hank's Balanced Salt Solution), the stomach in ice-cooled HBSS was transferred to a laboratory. Then, after the pyloric antrum was removed, the gastric corpus mucosa was separated by a spatula and then minced into 2 to 3 mm pieces in BME (Basal Medium Eagle). Thereafter, these pieces were shaken at 120 to 130 cycles/minute for 15 minutes at 37° C. in BME 60 ml containing 280 U/ml of dispase and 30 to 50 U/mil of collagenase. Here, the concentration of collagenase was appropriately changed for each lot in view of the state of cells. The pieces were washed twice with EBSS (Earle's Balanced Salt Solution) containing 1 mM of EDTA and then shaken in MEM (Minimum Essential Medium) containing 1 mM of EDTA at 37° C. for 5 minutes. Subsequently, they were shaken in the dispase and collagenase having the same concentrations as those mentioned above for 15 minutes so as to remove the supernatant and then further shaken at 37° C. for 50 to 60 minutes at 120 to 130 cycles/minute. Then, after being washed twice with HBSS, Ham F12 containing 2% of Ultrocer G™ was used to attain the concentration of 1×10^6 cells/ml. Thus formed suspension was dispensed in each well of a 96-well plate by 200 μl. The plate was incubated in the atmosphere composed of 5% CO2 and 95% air at 37° C. for three days so as to attain a confluent state and then subjected to MTT assay.
The sample compound was dissolved in DMSO so as to attain a concentration of 10^-2 M and then diluted with HBSS containing 2% of Ultrocer G™ so as to attain a final concentration of 10^-4 M. To each group, which 8 wells were used for, 10 μl of MTT reagent was added immediately after 100 μl of the medium in each well was exchanged for same volume of the resulting solution of the sample compound. After being incubated in an atmosphere composed of 5% CO2 and 95% air at 37° C. for 4 hours, thus formed solution was centrifuged and then its supernatant was discarded. Subsequently, 100 μl of 100% ethanol was added to the residue so as to dissolve MTT formazan. Then, the absorbance (OD: 570 to 630) was measured by a microplate reader. This method utilizes a phenomenon in which MTT is changed to MTT formazan only by mitochondria of living cells so as to change color.
The cell damaging or cell protecting effect of the sample compound at the final concentration of 10^-4 M was expressed as cell damaging rate (%) as follows:
cell damaging rate (%)={1-(absorbance in sample group/absorbance in control group)}×100
Accordingly, the smaller value is better in the cell damaging rate.

| Compound | inhibition at 10 µM [1] [%] | cytotoxicity at 4 h, 100 µM [2] [%] |
| --- | --- | --- |
| CCN(CC)CCSc1nnc(NC(=O)c2ccc(C(C)C)cc2)s1 [Example 1, 2-(4-isopropylbenzoyl)amino-5-diethylaminoethylthio-1,3,4-thiadiazole] | 101 | 22 |
| CC(C)c1ccc(C(=O)Nc2nnc(SCCN(C(C)C)C(C)C)s2)cc1 [Example 2, 2-(4-isopropylbenzoyl)amino-5-diisopropylaminoethylthio-1,3,4-thiadiazole] | 100 | – |
| CCN(CC)CCSc1nnc(NC(=O)c2ccc(C(C)(C)C)cc2)s1 [Example 4, 2-(4-tert-butylbenzoyl)amino-5-diethylaminoethylthio-1,3,4-thiadiazole] | 100 | 22 |
| CCN(CC)CCSc1nnc(NC(=O)c2ccc(OC/C=C(\C)CCC=C(C)C)cc2)s1 [Example 10, 2-(4-geranyloxybenzoyl)amino-5-diethylaminoethylthio-1,3,4-thiadiazole] | 100 | 17 |
| CC(C)=CCC/C(C)=C/COc1ccc(C(=O)Nc2nnc(SCCN3CCCCC3)s2)cc1 [Example 12, 2-(4-geranyloxybenzoyl)amino-5-piperidinoethylthio-1,3,4-thiadiazole] | 99 | 12 |
| CC(C)=CCC/C(C)=C/COc1ccc(C(=O)Nc2nnc(SCc3ccccn3)s2)cc1 [Example 14, 2-(4-geranyloxybenzoyl)amino-5-(2-pyridylmethyl)thio-1,3,4-thiadiazole] | 45 | -13 |
| CCSc1nnc(NC(=O)c2ccc(OC/C=C(\C)CCC=C(C)C)cc2)s1 [Example 15, 2-(4-geranyloxybenzoyl)amino-5-ethylthio-1,3,4-thiadiazole] | 17 | 1 |
